Results published in patent US9382286B2, “Treatment of EBV and KHSV infection and associated abnormal cellular proliferation” (EMORY UNIVERSITY, priority 2001, dated 2016).

System: HIV-1LAI
Assay: Anti-HIV-1 activity in human PBM cells
Type: cell-based
Settings: Human immunodeficiency virus 1, PBMC; read-out: EC50 against human immunodeficiency virus type 1
Method: Anti-HIV-1 activity of the compounds was determined in human peripheral blood mononuclear (PBM) cells as described previously (Schinazi R. F., McMillan A., Cannon D., Mathis R., Lloyd R. M. Jr., Peck A., Sommadossi J.-P., St. Clair M., Wilson J., Furman P. A., Painter G., Choi W.-B., Liotta D. C. Antimicrob. Agents Chemother. 1992, 36, 2423; Schinazi, R. F., Sommadossi J.-P., Saalmann V., Cannon D., Xie M.-Y., Hart G., Smith G., Hahn E. Antimicrob. Agents Chemother. 1990, 34, 1061). Stock solutions (20-40 mM) of the compounds were prepared in sterile DMSO and then diluted to the desired concentration in growth medium. Cells were infected with the prototype HIV-1LAI at a multiplicity of infection of 0.01. Virus obtained from the cell supernatant was quantified on day 6 after infection by a reverse transcriptase assay using (rA)n.(dT)12-18 as template-primer. The DMSO present in the diluted solution (<0.1%) had no effect on the virus yield. AZT was included as positive control. The toxicity of some compounds was assessed in Vero, human PBM, and CEM cells, as described previously (Schinazi R. F., Sommadossi J.-P., Saalmann V., Cannon D. L., Xie M.-Y., Hart G. C., Smith G. A., Hahn E. F. Antimicrob Agents Chemother. 1990, 34, 1061-1067). Cycloheximide was included as positive cytotoxic control, and untreated cells exposed to solvent were included as negative controls. […]

| Compound | EC50 [nM] |
| --- | --- |
| C#Cc1cn([C@H]2CC(O)[C@@H](CO)O2)c(=O)[nH]c1=O (stereo partly drawn) [5-ethynyl-dU, β-D-2′-deoxy-5-ethynyluridine] | 610 |

Biological target: T1, EBV-TK (Epstein-Barr virus, UniProt P03177)
T1 construct: expressed in transfected cells; host or cells: 143B TK- human osteosarcoma cells and 293 human embryonic kidney cells, stably transfected with pCMV EBV-TK
T1 sequence (P03177 whole entry): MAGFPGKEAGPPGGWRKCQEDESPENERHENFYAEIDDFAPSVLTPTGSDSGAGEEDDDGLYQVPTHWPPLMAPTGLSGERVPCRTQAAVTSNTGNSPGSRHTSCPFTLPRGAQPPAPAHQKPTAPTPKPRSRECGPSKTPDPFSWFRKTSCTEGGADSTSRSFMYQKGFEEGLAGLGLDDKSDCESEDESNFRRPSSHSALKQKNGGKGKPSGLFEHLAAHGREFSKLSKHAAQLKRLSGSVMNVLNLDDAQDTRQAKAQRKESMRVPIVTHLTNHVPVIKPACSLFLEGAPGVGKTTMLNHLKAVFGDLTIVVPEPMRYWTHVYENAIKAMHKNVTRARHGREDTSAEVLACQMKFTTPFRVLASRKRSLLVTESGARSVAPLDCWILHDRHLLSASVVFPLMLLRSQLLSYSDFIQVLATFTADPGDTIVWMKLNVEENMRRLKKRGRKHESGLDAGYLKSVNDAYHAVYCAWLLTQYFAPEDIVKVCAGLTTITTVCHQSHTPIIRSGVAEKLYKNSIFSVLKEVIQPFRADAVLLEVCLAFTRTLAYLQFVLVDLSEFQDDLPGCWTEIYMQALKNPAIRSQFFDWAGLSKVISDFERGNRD
Assay: Selectivity for EBV-TK: thymidine phosphorylation competition and cytotoxicity assays on EBV-TK-expressing cells
Type: cell-based
Settings: EBV-TK versus human cellular thymidine kinase
Method: J. Virol. 74, 684-692). EBV-TK was incubated in an optimized buffer with 15 μM 3H-dT as substrate in a final volume of 100 μL. The enzyme source was either lysate from 143B EBV-TK-expressing cells or purified GST EBV-TK from E. coli. The amount of enzyme was adjusted so that the reaction proceeded linearly for over 60 min. A 10-fold excess (150 μM) of the nucleoside analog being tested was included in the experiment. The reaction was halted at 30 min. by spotting 50 μL of the reaction onto positively charged DE-81 discs (Whatman). After washing four times with 5 mM ammonium formate and once with 95% ethanol, the discs were dried and counted in a scintillation counter. The CPM of the positive control reaction containing no nucleoside analog was taken as 100% activity.
This assay measures the ability of a candidate nucleoside to specifically eliminate EBV-infected cells in the continuous presence of drug. 143B TK-cells lack TK-1. 293 cells contain human TK-1. Therefore, these assays comparatively assess the effects of human TK expression on toxicity. Stock solutions (20-40 mM) of the compounds were prepared in sterile DMSO and then diluted to the desired concentration in growth medium. The cells (143B TK-, 293 EBV-TK or 293 Neo control cells) were cultured in the presence of drug for 5 days, and the media was replaced with fresh media containing drug on day three. Cells were then washed one time with PBS, fixed with 4% formaldehyde/1% methanol and stained with 1% crystal violet in 20% ethanol for visualization of the cell monolayer. […] Cultures with this designation often have media that is still “pink,” indicating a slowdown of cellular metabolism. Identical samples are assessed in triplicate.
Stock solutions (20-40 mM) of the compounds were prepared in sterile DMSO and then diluted to the desired concentration in growth medium. Exponentially growing cells were incubated with the nucleoside in question for 24 h, plated in 24-well plates at 50 viable cells per well and incubated for 7-9 days in the absence of drug. Cells were fixed and stained as above and colonies were counted. A nucleoside can cause a decrease in the number of colonies, which is an indirect indication of the number of cells able to survive and to replicate after the initial exposure to drug.
Two cell systems are employed to determine the toxicity of each nucleoside. The information obtained depends upon the system used. In 143B TK-cells, cytotoxic drugs that are dependent upon phosphorylation by a TK are easily identified. 143B TK-cells expressing either EBV-TK or hTK1 permit assessment of whether either enzyme independently may cause a drug to become cytotoxic. Thus, drugs that can be activated by hTK1, which would cause non-specific cytotoxicity, are readily identified. One drawback is that these cells are grown in HAT media that “forces” nucleosides through the TK salvage pathway (EBV-TK or hTK1). A false positive may arise if a nucleoside out-competes dT for phosphorylation such that sufficient amounts of dT are not available for cellular replication. This toxicity may not be present or may be reduced in a cell that has the synthetic as well as salvage pathways available for dTTP production. For this reason, the 293 system was developed. These cells have endogenous hTK1 and EBV-TK is maintained by selection in G418. Thus, the normal hTK1 salvage pathway is operational, and nucleosides can be expected to flux through the cells normally. Drugs are incubated with 293 cells transformed with a neomycin (Neo) expressing plasmid (Neo control) and with cells transfected with the same plasmid also expressing EBV-TK. A nucleoside selectively activated by EBV-TK should cause toxicity on 293 EBV-TK and not on 293 Neo control cells. In both the 143B and 293 cell systems, toxicity is evaluated by cell survival. The cells are cultured in the presence of drug for 5 days, and the media replaced with fresh media containing drug on day 3. […]

| Compound | selectivity for EBV-TK (specifically phosphorylated and converted into a cytotoxic agent by EBV-TK) |
| --- | --- |
| O=C(O)/C=C/c1cn([C@H]2CC(O)[C@@H](CO)O2)c(=O)[nH]c1=O (stereo partly drawn) [β-D-5-E-(2-carboxyvinyl)-2′-deoxyuridine] | selectivity for EBV-TK |
| CCCCc1cn([C@H]2CC(O)[C@@H](CO)O2)c(=O)[nH]c1=O (stereo partly drawn) [β-D-5-butyl-2′-deoxyuridine] | selectivity for EBV-TK |
| C=Cc1cn([C@@H]2CC(O)[C@H](CO)O2)c(=O)[nH]c1=O (stereo partly drawn) [β-L-2′-deoxy-5-vinyluridine] | selectivity for EBV-TK |
| O=c1[nH]c(=O)n([C@H]2CC(O)[C@@H](CO)O2)cc1CO (stereo partly drawn) [β-D-2′-deoxy-5-(hydroxymethyl)uridine] | selectivity for EBV-TK |
| C=Cc1cn([C@H]2O[C@@H](CO)C(O)C2O)c(=O)[nH]c1=O (stereo partly drawn) [β-L-5-vinyluridine] | selectivity for EBV-TK |
| O=c1[nH]c(=O)n([C@@H]2CC(O)[C@H](CO)O2)cc1I (stereo partly drawn) [β-L-2′-deoxy-5-iodouridine] | selectivity for EBV-TK |
| O=c1[nH]c(=O)n([C@@H]2CO[C@H](CO)O2)cc1/C=C/CO [(2S,4S)-5-(3-hydroxypropenyl)-1-[2-(hydroxymethyl)-1,3-dioxolan-4-yl]uracil] | selectivity for EBV-TK |
| O=c1[nH]c(=O)n([C@@H]2CO[C@H](CO)O2)cc1-c1ccco1 [(2S,4S)-5-(2-furanyl)-1-[2-(hydroxymethyl)-1,3-dioxolan-4-yl]uracil] | selectivity for EBV-TK |
| O=c1[nH]c(=O)n([C@@H]2CO[C@H](CO)O2)cc1-c1cccs1 [(2S,4S)-5-(2-thienyl)-1-[2-(hydroxymethyl)-1,3-dioxolan-4-yl]uracil] | selectivity for EBV-TK |
| O=c1[nH]c(=O)n([C@@H]2CO[C@H](CO)O2)cc1-c1ccc(Br)s1 [(2S,4S)-5-(5-bromthien-2-yl)-1-[2-(hydroxymethyl)-1,3-dioxolan-4-yl]uracil] | selectivity for EBV-TK |
| O=c1[nH]c(=O)n([C@@H]2CO[C@H](CO)O2)cc1-c1ccc(Br)o1 [(2S,4S)-5-(5-bromo-2-furanyl)-1-[2-(hydroxymethyl)-1,3-dioxolan-4-yl]uracil] | selectivity for EBV-TK |
| C=Cc1cn([C@H]2CC(O)[C@@H](CO)O2)c(=O)[nH]c1=O (stereo partly drawn) [5-vinyl-dU, β-D-2′-deoxy-5-vinyluridine] | selectivity for EBV-TK |
